The text below walks through data of patent US20210355121A1, “FUSED TRICYCLIC KRAS INHIBITORS” (Incyte Corporation, priority 2020, published 2021).

Molecules are shown by their SMILES.

In test [1] the target is KRAS G12C (Homo sapiens, UniProt P01116, G12C). Kind of test: KRAS G12C GDP-GTP exchange assay (bodipy-GDP for GppNHp, with SOS1). The test is classed as biochemical. The settings on record: 2.5 nM bodipy-loaded KRAS G12C, 2 hours pre-incubation with inhibitor, 2 hours after GppNHp-SOS1; read-out: G12C_exchange (KRAS_G12C exchange assay IC50). In outline:
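Fluorescence nucleotide-exchange assay: bodipy-GDP-loaded KRAS (2.5 nM final) pre-incubated with inhibitor 2 h at ambient temperature, then 500 µM GppNHp plus 150 nM SOS1 added in pH 7.5 Hepes/MgCl2 buffer. Exchange read at ex 485/em 520 nm after 2 h (G12C), 4 h (G12D) or 3 h (G12V). IC50 from four-parameter logistic fit.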

Test [2] has as its system MIA PaCa-2 (KRAS G12C) cells. Kind of test: KRAS_G12C cellular pERK HTRF assay. The test is classed as cell-based, human. More on the design: G12C_pERK (KRAS_G12C pERK assay IC50): scale not given here. The settings on record: phospho-ERK1/2 HTRF, 4 hours incubation; for IC50: Homo sapiens, MIA PaCa-2, read-out: G12C_pERK (KRAS_G12C pERK assay IC50). A digest of the protocol:
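MIA PaCa-2 (G12C) or G12D lines (A427, HPAF-II) in RPMI/10% FBS, treated with compound for 4 h (G12C) or 2 h (G12D) at 37 °C after overnight plating. Lysed, phospho-ERK1/2 detected by HTRF (665/620 nm). IC50 from percent inhibition versus log concentration.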
Background: TR-FRET usually uses a lanthanide donor and a delayed reading to cut background.

By IC50 is commonly meant the concentration that inhibits the measured activity by half.

Chain of KRAS G12C (P01116 1-188 isoform P01116-2 G12C): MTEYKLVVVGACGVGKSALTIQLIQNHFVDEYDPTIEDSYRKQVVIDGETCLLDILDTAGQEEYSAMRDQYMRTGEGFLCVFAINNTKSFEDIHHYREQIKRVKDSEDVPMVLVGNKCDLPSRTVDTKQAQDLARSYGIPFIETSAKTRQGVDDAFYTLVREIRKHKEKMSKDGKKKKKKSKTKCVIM

In the case of `COC/C=C/C(=O)N1CC[C@H](n2ncc3c(N4CC(C)(N(C)C)C4)nc4c(F)c(-c5c(C)c(C)cc6[nH]ncc56)c(Cl)cc4c32)C[C@H]1CC#N` (single isomer, unassigned) [Example 83a], the 50% inhibitory concentration (IC50) in test [1] and in test [2] was not above 0.1 µM in each case.
As for `Cc1cc2[nH]ncc2c(-c2c(Cl)cc3c(nc(N4CC(C)(N(C)C)C4)c4cnn([C@H]5CCN(C(=O)/C=C/CN(C)C)[C@H](CC#N)C5)c43)c2F)c1C` (single isomer, unassigned) [Example 84a], the IC50 in test [1] and in test [2] was not above 0.1 µM each time.
As to `CC#CC(=O)N1CC[C@H](n2ccc3c(OC[C@@H]4CCCN4C)nc4c(F)c(-c5c(C)c(C)cc6[nH]ncc56)c(Cl)cc4c32)C[C@H]1CC#N` (single isomer, unassigned) [Example 90a], the IC50 in test [1] and in test [2] was not above 0.1 µM in each case.
With `C=CC(=O)N1CCC(n2ncc3cnc4c(F)c(-c5cc(O)cc6ccccc56)c(Cl)cc4c32)CC1` [Example 1], in test [1], the IC50 was not above 0.1 µM. Besides, the “G12C_pERK (KRAS_G12C pERK assay IC50)” value in test [2] is “††”.
Regarding `C=CC(=O)N1CCC(n2ncc3c(N4CC(N(C)C)C4)nc4c(F)c(-c5cc(O)cc6ccccc56)c(Cl)cc4c32)CC1` [Example 2, 1-(4-(8-chloro-4-(3-(dimethylamino)azetidin-1-yl)-6-fluoro-7-(3-hydroxynaphthalen-1-yl)-1H-pyrazolo[4,3-c]quinolin-1-yl)piperidin-1-yl)prop-2-en-1-one], the IC50 in test [1] and in test [2] was not above 0.1 µM in each case.
Regarding `C=CC(=O)N1CC[C@H](n2ncc3c(N4CC(N(C)C)C4)nc4c(F)c(-c5cncc6ccccc56)c(Cl)cc4c32)C[C@H]1CC#N` [Example 22, 2-((2S,4S)-1-acryloyl-4-(8-chloro-4-(3-(dimethylamino)azetidin-1-yl)-6-fluoro-7-(isoquinolin-4-yl)-1H-pyrazolo[4,3-c]quinolin-1-yl)piperidin-2-yl)acetonitrile], the IC50 in test [1] and in test [2] was not above 0.1 µM in each case.
In the case of `C=CC(=O)N1CC[C@H](n2ncc3c(N4CC(N(C)C)C4)nc4c(F)c(-c5cccc(C)c5Cl)c(Cl)cc4c32)C[C@H]1CC#N` [Example 23, 2-((2S,4S)-1-acryloyl-4-(8-chloro-7-(2-chloro-3-methylphenyl)-4-(3-(dimethylamino)azetidin-1-yl)-6-fluoro-1H-pyrazolo[4,3-c]quinolin-1-yl)piperidin-2-yl)acetonitrile], the IC50 in test [1] and in test [2] was not above 0.1 µM each time.
For `Cc1cccc(-c2c(Cl)cc3c(nc(N4CC(N(C)C)C4)c4cnn([C@H]5CCN(C(=O)/C=C/CN(C)C)[C@H](CC#N)C5)c43)c2F)c1Cl` [Example 24, 2-((2S,4S)-4-(8-chloro-7-(2-chloro-3-methylphenyl)-4-(3-(dimethylamino)azetidin-1-yl)-6-fluoro-1H-pyrazolo[4,3-c]quinolin-1-yl)-1-((E)-4-(dimethylamino)but-2-enoyl)piperidin-2-yl)acetonitrile], the IC50 in test [1] and in test [2] was not above 0.1 µM each time.
Regarding `C=CC(=O)N1CC[C@H](n2ncc3c(N4CC(N(C)C)C4)nc4c(F)c(-c5cccc(C)c5C(F)(F)F)c(Cl)cc4c32)C[C@H]1CC#N` [Example 27, 2-((2S,4S)-1-acryloyl-4-(8-chloro-4-(3-(dimethylamino)azetidin-1-yl)-6-fluoro-7-(3-methyl-2-(trifluoromethyl)phenyl)-1H-pyrazolo[4,3-c]quinolin-1-yl)piperidin-2-yl)acetonitrile], the IC50 in test [1] and in test [2] was not above 0.1 µM each time.
In the case of `C=CC(=O)N1CC[C@H](n2ncc3c(OC[C@@H]4CCCN4C)nc4c(F)c(-c5cccc(C)c5C(F)(F)F)c(Cl)cc4c32)C[C@H]1CC#N` [Example 28, 2-((2S,4S)-1-acryloyl-4-(8-chloro-6-fluoro-7-(3-methyl-2-(trifluoromethyl)phenyl)-4-(((S)-1-methylpyrrolidin-2-yl)methoxy)-1H-pyrazolo[4,3-c]quinolin-1-yl)piperidin-2-yl)acetonitrile], the IC50 in test [1] and in test [2] was not above 0.1 µM throughout.
Take `CN(C)C/C=C/C(=O)N1CC[C@H](n2ncc3c(N4CC(C)(N(C)C)C4)nc4c(F)c(-c5cccc6cccc(Cl)c56)c(Cl)cc4c32)C[C@H]1CC#N` [Example 63, 2-((2S,4S)-4-(8-chloro-7-(8-chloronaphthalen-1-yl)-4-(3-(dimethylamino)-3-methylazetidin-1-yl)-6-fluoro-1H-pyrazolo[4,3-c]quinolin-1-yl)-1-((E)-4-(dimethylamino)but-2-enoyl)piperidin-2-yl)acetonitrile]: the IC50 in test [1] and in test [2] was not above 0.1 µM throughout.
`C[C@H](Oc1nc2c(F)c(-c3cccc4cccc(Cl)c34)c(Cl)cc2c2c1cnn2[C@H]1CCN(C(=O)/C=C/CF)[C@H](CC#N)C1)[C@@H]1CCCN1C` [Example 85, 2-((2S,4S)-4-(8-chloro-7-(8-chloronaphthalen-1-yl)-6-fluoro-4-((S)-1-((S)-1-methylpyrrolidin-2-yl)ethoxy)-1H-pyrazolo[4,3-c]quinolin-1-yl)-1-((E)-4-fluorobut-2-enoyl)piperidin-2-yl)acetonitrile]: the IC50 in test [1] and in test [2] was not above 0.1 µM in each case.
Take `C=C(F)C(=O)N1CC[C@H](n2ncc3c(O[C@@H](C)[C@@H]4CCCN4C)nc4c(F)c(-c5cccc6cccc(Cl)c56)c(Cl)cc4c32)C[C@H]1CC#N` [Example 86, 2-((2S,4S)-4-(8-chloro-7-(8-chloronaphthalen-1-yl)-6-fluoro-4-((S)-1-((S)-1-methylpyrrolidin-2-yl)ethoxy)-1H-pyrazolo[4,3-c]quinolin-1-yl)-1-(2-fluoroacryloyl)piperidin-2-yl)acetonitrile]: the IC50 in test [1] and in test [2] was not above 0.1 µM each time.
`CC#CC(=O)N1CC[C@H](n2ncc3c(O[C@@H](C)[C@@H]4CCCN4C)nc4c(F)c(-c5cccc6cccc(Cl)c56)c(Cl)cc4c32)C[C@H]1CC#N` [Example 87, 2-((2S,4S)-1-(but-2-ynoyl)-4-(8-chloro-7-(8-chloronaphthalen-1-yl)-6-fluoro-4-((S)-1-((S)-1-methylpyrrolidin-2-yl)ethoxy)-1H-pyrazolo[4,3-c]quinolin-1-yl)piperidin-2-yl)acetonitrile]: the IC50 in test [1] and in test [2] was not above 0.1 µM each time.
As for `COC/C=C/C(=O)N1CC[C@H](n2ncc3c(O[C@@H](C)[C@@H]4CCCN4C)nc4c(F)c(-c5cccc6cccc(Cl)c56)c(Cl)cc4c32)C[C@H]1CC#N` [Example 88, 2-((2S,4S)-4-(8-chloro-7-(8-chloronaphthalen-1-yl)-6-fluoro-4-((S)-1-((S)-1-methylpyrrolidin-2-yl)ethoxy)-1H-pyrazolo[4,3-c]quinolin-1-yl)-1-((E)-4-methoxybut-2-enoyl)piperidin-2-yl)acetonitrile], the IC50 in test [1] and in test [2] was not above 0.1 µM throughout.
`C[C@H](Oc1nc2c(F)c(-c3cccc4cccc(Cl)c34)c(Cl)cc2c2c1cnn2[C@H]1CCN(C(=O)/C=C/CN(C)C)[C@H](CC#N)C1)[C@@H]1CCCN1C` [Example 89, 2-((2S,4S)-4-(8-chloro-7-(8-chloronaphthalen-1-yl)-6-fluoro-4-((S)-1-((S)-1-methylpyrrolidin-2-yl)ethoxy)-1H-pyrazolo[4,3-c]quinolin-1-yl)-1-((E)-4-(dimethylamino)but-2-enoyl)piperidin-2-yl)acetonitrile]: the IC50 in test [1] and in test [2] was not above 0.1 µM each time.
